Assay [1] has as its system tomato spotted wilt virus (TSWV). The assay can be described thus: Replicated tomato drench trial (Example 6). The class given is in vivo, tomato (Lycopersicon esculentum MILL.). The settings on record: prothioconazole 0.0084 g ai/plant, imidacloprid 0.01 g/plant; for Percent control of incidence of TSWV in tomatoes: Abbott's formula; for Percent incidence of TSWV in tomatoes: drench. On the procedure: Cultivation—A replicated trial on tomato (Lycopersicon esculentum MILL.) was initiated in Molino, Fla. to determine if drenches of prothioconazole alone and in combination with the insecticide imidacloprid would suppress TSWV in tomato. Tomato plants, cultivar FL 47 were transplanted on April 11 into 4 rows, each 9.1 meters long, 60 plants per plot, with three replications. Treatments were applied, into a shallow bowl dug at the base of each plant, as a drench in 40 ml water per plant (6 days after transplanting) on April 17. Treatments— • Untreated—no in-furrow treatment • Imidacloprid@0.01 g imidacloprid/plant. • Prothioconazole—prothioconazole@0.0084 g active ingredient/plant. • Prothioconazole+Imidacloprid—prothioconazole@0.0084 g active ingredient/plant+imidacloprid@0.01 g imidacloprid/plant. TSWV rating—University researchers recommend buffers in TSWV testing. Therefore, the center two rows (30 plants) per plot were used for virus ratings with the outer two rows acting as buffers. TSWV incidence determinations were made based on the presence or absence of TSWV symptoms (chlorosis and stunting) per plant. The four treatments were rated at 21, 29, and 39 days after treatment. Synergy formula—The Colby formula for proof of synergy was used in Example 6. The percent incidence values were converted to percent control with Abbotts's formula (1-treated/untreated)*100. Percent control values for solo treatment X and solo treatment Y, were entered into the Colby formula. When the value determined from the plots with both treatment X and Y applied together is greater than the value determined by the Colby formula then synergy is indicated. The formula is: X+Y−(X*Y/100).

For assay [2] the test system is unchanged. The assay can be described thus: Bell pepper drench trial (Example 7). The class given is in vivo, bell pepper (Capsicum annum L.). The settings on record: for Percent control of incidence of TSWV in bell peppers: Abbott's formula; for Percent incidence TSWV in bell peppers: drench, prothioconazole 0.0084 g ai/plant, imidacloprid 0.01 g/plant. On the procedure:
Cultivation—A trial on bell pepper (Capsicum annum L.) was initiated in Molino, Fla. to see if drenches of prothioconazole alone and in combination with the insecticide imidacloprid could control TSWV in pepper. Bell pepper plants were transplanted on April 11 into 9.1 meter plots with three replications as in Example 6. Treatments were applied as a drench in 40 ml water per plant (7 days after transplanting) on April 18 as in Example 6.
Treatments— • Untreated—no in-furrow treatment. • Imidacloprid—imidacloprid@0.01 g imidacloprid/plant. • Prothioconazole—prothioconazole@0.0084 g prothioconazole/plant. • Prothioconazole+Imidacloprid—prothioconazole@0.0084 g active ingredient/plant+imidacloprid@0.01 g imidacloprid/plant.
TSWV rating—For TSWV incidence determination, the percentage of plants with TSWV symptoms (chlorosis and stunting) was determined for the four treatments at 21, 29, 38, and 47 days after treatment as in Example 6.
Synergy formula—The Colby formula for proof of synergy was used in Example 7 as in Example 6.

The test system is the same in assay [3]. Briefly: Tobacco drench / broadcast spray trial (Example 8). The assay is classed as in vivo, tobacco (Nicotiana tabacum). To be noted: acibenzolar-S-methyl 2.47 g ai/Ha broadcast spray. The text has this: Cultivation—A trial on tobacco (Nicotiana tabacum) was initiated in Molino, Fla., to see if drenches of prothioconazole alone and in combination with the insecticide imidacloprid could control TSWV in tobacco. Plants of cultivar C-371 Gold were transplanted on April 28 into 9.1 meter plots with three replications. All eight treatments were applied after transplanting on May 1. Foliar treatments were applied as a broadcast spray, while drenches were applied as in Example 6. Acibenzolar-S-methyl is a plant defense activator used to control TSWV in tobacco.
Treatments— • Untreated • Imidacloprid@0.01 g imidacloprid/plant • Imidacloprid@0.015 g Imidacloprid/plant • Prothioconazole@0.0084 g active ingredient/plant • Prothioconazole@0.0084 g active ingredient/plant+Imidacloprid@0.01 g imidacloprid/plant • Prothioconazole@0.0084 g active ingredient/plant+Imidacloprid@0.015 g […] label. • Acibenzolar-S-methyl@2.47 g active ingredient/Ha as a broadcast spray as per label.
TSWV rating—For TSWV incidence determination the percentage of plants with TSWV symptoms (chlorosis and stunting) was determined for the eight treatments as in Example 6.

Where [4] appears, read: 14 days after treatment, prothioconazole 0.0084 g ai/plant, imidacloprid 0.01 g/plant (drench).
The mark [5] stands for this setting: 21 days after treatment, prothioconazole 0.0084 g ai/plant, imidacloprid 0.01 g/plant (drench).
Setting [6] is: 38 days after treatment, prothioconazole 0.0084 g ai/plant, imidacloprid 0.01 g/plant (drench).

Structures are written as SMILES.

As for `O=[N+]([O-])NC1=NCCN1Cc1ccc(Cl)nc1` [Imidacloprid, imidacloprid], the figures for the “Percent control of incidence of TSWV in tomatoes” value in assay [1] (21 days after treatment), in assay [1] (29 days after treatment) and in assay [1] (39 days after treatment) were 65.07%, 50.52% and 41.30%, respectively. Further, the “Percent incidence of TSWV in tomatoes” value is 10.2% in assay [1] (21 days after treatment), 33.4% in assay [1] (29 days after treatment) and 49.6% in assay [1] (39 days after treatment). Moreover, the “Percent control of incidence of TSWV in bell peppers” value was found to be 26.14% in assay [2] (21 days after treatment), 45.84% in assay [2] (29 days after treatment), 25.49% in assay [2] (38 days after treatment) and 19.32% in assay [2] (47 days after treatment). The “Percent incidence TSWV in bell peppers” value in assay [2] (21 days after treatment) was 17.8%; in assay [2] (29 days after treatment), 25.4%; in assay [2] (38 days after treatment), 38.3%; in assay [2] (47 days after treatment), 42.6%. Further, in assay [2] (bell pepper, untreated increased by 1.4 percent), the “Increase of TSWV level from 38 DAT to 47 DAT” value was “roughly 4.5%”. In addition, the “Percent incidence TSWV in tobacco” value in assay [3] (14 days after treatment, imidacloprid 0.015 g/plant, prothioconazole 0.0084 g ai/plant (drench)) came out at 23.9%; in assay [3] (setting [4]), 23.9%; in assay [3] (21 days after treatment, imidacloprid 0.015 g/plant, prothioconazole 0.0084 g ai/plant (drench)) it was 25.5%; in assay [3] (setting [5]), 24.4%; in assay [3] (38 days after treatment, imidacloprid 0.015 g/plant, prothioconazole 0.0084 g ai/plant (drench)), 45.5%; in assay [3] (setting [6]), 45.0%.

Regarding `CSC(=O)c1cccc2nnsc12` [acibenzolar-S-methyl], the “Percent incidence TSWV in tobacco” value in assay [3] (setting [4]) worked out at 36.7%; in assay [3] (setting [5]), 46.7%; in assay [3] (setting [6]) it was 53.9%.

The record behind these values is patent US20080039431A1, “Method of improving plant growth by reducing viral infections” (priority 2006, published 2008).
